Values joined by “and” are separate entries in the source; they are usually repeats but may differ in a detail not shown here. Identical values can stand only once.
Tests used:
[1] = tested on: rats submitted to the elevated plus maze; assay: Elevated plus-maze (EPM), intra-dlPAG microinjection in rats; assay type: in vivo, Wistar rats
Protocol: (§1) Male Wistar rats (220-250 g) and Swiss mice (25-30 g) originated from the Central Animal Farm of the School of Medicine of Ribeirão Preto (FMRP-USP) were maintained in groups of five animals per box (41×33×17 cm) in a temperature controlled room (24±2° C.) with a 12×12 h light-dark cycle. They received water and food ad libitum throughout the study period.
(§2) HU-474 (1, 3 and 10 mg/kg) was administered intraperitoneally (IP) in mice at 10 mL/kg volume and HU-475 (1, 3 and 10 nmol) was injected intra-dlPAG in rats. Both drugs were dissolved in 2% Tween 80 in sterile saline.
Rats were submitted to a stereotaxic surgery to unilaterally implant cannulae (9.0 mm, 0.6 mm OD) into the dlPAG (coordinates: lateral: −1.9 mm; depth: −4.3 mm; angle: 16° from lambda; Paxinos and Watson, 2005), fixed to the skull with acrylic cement (Campos & Guimarães, 2008). The surgeries were performed under anesthesia with tribromoethanol 2.5% (10.0 mL/kg, IP) and immediately after the animals received Veterinary Pentabiotic (0.2 mL, intramuscular) and analgesic (Banamine, 1.0 mL/kg, subcutaneous) to prevent infections and decrease post-surgical pain. After surgery, animals underwent a recovery period of 5-7 days before the behavioral tests.
Animals received unilateral microinjections of vehicle or HU-475 into the dlPAG before being submitted to the behavioral tests. To this aim, microneedles (10.0 mm, 0.3 mm OD), connected to a microsyringe (Hamilton, USA, […]) through a segment of polyethylene (P10) were inserted into the guide cannulae. Solutions were injected with the help of an infusion pump (KD Scientific, USA). A 0.2 μL solution volume was injected over 1 min. After the injections, the needles remained inserted in the cannulae for additional 30 seconds to prevent drug reflux (Campos & Guimarães, 2008).
The wood EPM used to perform the experiments was located in a sound attenuated and temperature controlled room (23° C.), with one incandescent light (40 W) placed 1.3 m away from the maze. The apparatus consists of two opposing open arms (50×10 cm) without side walls, perpendicular to two enclosed arms (50×10×40 cm), with a central platform common to all arms (10×10 cm). The apparatus is elevated 50 cm above the ground and has an acrylic edge (1 cm) in the open arms to prevent animal falls. In this model, rodents naturally avoid the open arms, exploring more extensively the enclosed arms. […] The test lasted for 5 min and was recorded. The animal behavior was analyzed with the help of the Anymaze Software (version 4.5, Stoelting). […]
(§3) Results from HU-475 and HU-474 tests in the elevated plus maze were analyzed by Kruskal-Wallis followed by Mann-Whitney tests. Data from animals tested in the FST were analyzed by one-way ANOVA followed by Duncan test.

C57BL/6J mice = assay: Pre-pulse inhibition (PPI) test, impairment induced by MK-801; assay type: in vivo
Protocol: The experiments were performed using male C57BL/6J mice weighting 25-30 g. The animals were maintained throughout the experimental period under standard laboratory conditions with free access to water and food will be used.
HU-474 (3 and 10 mg/kg) was dissolved in 2% Tween 80 in sterile saline (vehicle). MK-801 (a NMDA antagonist, 0.5 mg/kg, Sigma, USA) was dissolved in saline. Drugs were administered intraperitoneally (ip) at 10 mL/kg volume.
The animals (n=9-11/group) received i.p. administration of vehicle or HU-474 (3 and 10 mg/kg) followed, 30 minutes later, by saline or MK-801 (0.5 mg/kg), resulting in the following experimental groups: vehicle+saline, HU 10+saline, vehicle+MK-801, HU 3+MK-801, HU 10+MK-801. The animals were submitted to PPI test 20 minutes after the last drug injection.
The PPI was carried out in three consecutive steps. The first consisted of an acclimation period during which no stimulus was presented. In the second step, called habituation, only the stimulus that triggers the startle (pulse) was presented. The step that assessed the inhibition of startle response pulse consisted of 64 random presentations of the different stimuli: (i) pulse (white noise) 105 dB at 20 ms, (II) pre-pulse (pure tone frequency of 7 kHz) 80, 85 and 90 dB at 10 ms, (III) followed by pre-pulse 100 ms interval between them and (IV) zero (no stimulus). During this session the stimuli are presented at regular intervals of 30 s, 8 presentations of each stimulus. The percentage of the PPI was expressed as the percent inhibition of startle amplitude in response to multiple presentations of the pulse preceded by pre-pulse (PP), depending on the amplitude of the response only to the pulse (P), which was obtained in the following formula: % PPI=100−((PP/P)×100). […]
The percentage of PPI was analyzed by repeated measures MANOVA with the treatment as the independent factor and the prepulse intensity (80, 85 and 90 dB) as repeated measure.

[2] = tested on: mice tested in the elevated plus maze; assay: Elevated plus-maze (EPM) in mice, systemic (IP) administration; assay type: in vivo, Swiss mice
Protocol: as §1, §2
The wood EPM used to perform the experiments was located in a sound attenuated and temperature controlled room (23° C.), with one incandescent light (40 W) placed 1.3 m away from the maze. The apparatus consists of two opposing open arms (50×10 cm) without side walls, perpendicular to two enclosed arms (50×10×40 cm), with a central platform common to all arms (10×10 cm). The apparatus is elevated 50 cm above the ground and has an acrylic edge (1 cm) in the open arms to prevent animal falls. In this model, rodents naturally avoid the open arms, exploring more extensively the enclosed arms. Anxiolytic drugs increase the exploration in open arms without affecting the number of enclosed arms entries, which is usually used to assess general exploratory activity (File, 1992). Ten minutes after the last injection the animal was placed on the central platform of the maze with the head facing one of the enclosed arms. The test lasted for 5 min and was recorded. The animal behavior was analyzed with the help of the Anymaze Software (version 4.5, Stoelting). This software indicates the location of the animal in the EPM and automatically calculates the percentage of entries (Peo) and time spent in the open arms (Pto) and the number of entries in the enclosed arms (EA). Animals were only considered to enter an open or enclosed arm when 90% of their bodies were inside the region. All experiments were performed in the morning period (8 to 12 a.m.).
Similar to 5.1 except that the each arm measured 30×5 cm.
as §3

mice tested in the FST [3] = assay: Forced swimming test (FST) in mice; assay type: in vivo, Swiss mice; conditions: for immobility time in the FST: IP
Protocol: as §1, §2
Animals were individually submitted for 6 min of forced swimming in glass cylinders (height 25 cm, diameter 17 cm) containing 10 cm of water. The mice were videotaped and the immobility time (characterized by slow movements necessary to avoid drowning) was measured during the last 4-min period. The water was changed after each trial to maintain the temperature at 23-25° C. and to prevent the influence of alarm substances (Zanelati et al., 2010).
as §3

Swiss mice [4] = conditions: cited from earlier work
Swiss mice [5] = conditions: Moreira and Guimarães, 2005; cited from earlier work
[6] = Campos & Guimarães, 2008; cited from earlier work
Swiss mice [7] = conditions: single administration i.p., MK801 0.3-1 mg/kg i.p., also tested 1 and 15 mg/kg; cited from earlier work
[8] = tested on: rats submitted to the elevated plus maze; conditions: intra-dlPAG, same paradigm; doses tested: 15, 30 and 60 nmol; cited from earlier work
mice tested in the FST [9] = conditions: i.p., Swiss mice; doses tested 3, 10, 30 and 100 mg/kg; cited from earlier work

Structure (SMILES): C=C(CF)[C@@H]1CCC(C)=CC1c1c(OC(C)=O)cc(CCCCC)cc1OC(C)=O (some centres unmarked) [HU-475, 10-fluoro-cannabidiol diacetate]
- number of enclosed arm entries ([1]; HU-475 1, 3 and 10 nmol intra-dlPAG): No effect
- percentage of time spent into the open arms ([1]; HU-475 1, 3 and 10 nmol intra-dlPAG, X^2=8.5, DF=4, p=0.075, FIG. 2): tended to do the same
- percentage of entries onto the open arms ([1]; HU-475 1, 3 and 10 nmol intra-dlPAG, X^2=9.66, DF=4, p<0.05, FIG. 1): increased
- potency relative to CBD (EPM, intra-dlPAG) ([1]; intra-dlPAG, compared with CBD effective dose): 10 times

Structure (SMILES): C=C(C)[C@@H]1CCC(C)=CC1c1c(O)cc(CCCCC)c(F)c1O (some centres unmarked) [HU-474, 4′-fluoro-cannabidiol]
- MK-801 PPI disruption (effect of treatment) (C57BL/6J mice; HU-474 10 mg/kg i.p., MK-801 0.5 mg/kg, all prepulse intensities (80, 85, 90 dB), P<0.05, FIG. 6): attenuated
- effective dose (attenuation of MK-801 PPI disruption) (C57BL/6J mice; i.p., C57BL/6J mice): 10 mg/kg
- number of enclosed arms entries ([2]; HU-474 1, 3 and 10 mg/kg IP): No effect
- percentage of entries onto the open arms ([2]; HU-474 1, 3 and 10 mg/kg IP, FIG. 4): No effect
- percentage of time spent in the open arms ([2]; HU-474 1, 3 and 10 mg/kg IP, X^2=8.13, DF=3, p<0.05, FIG. 3): increased
- effective dose (anxiolytic-like effects, EPM) ([2]; systemic administration, bell-shaped dose-response curve): 3 mg/kg
- immobility time in the FST (mice tested in the FST [3]; dose of 3 m/kg, p=0.019, FIG. 5): decreased
- immobility time in the FST (mice tested in the FST [3]; doses of 1 and 10 mg/kg): ineffective
- potency relative to CBD (forced swimming test) (mice tested in the FST [3]; i.p., compared with CBD effective dose): 10 times

Structure (SMILES): C[C@]12N[C@H](Cc3ccccc31)c1ccccc12 [MK-801, reference compound]
- effect on PPI (C57BL/6J mice; MK-801 0.5 mg/kg i.p., all prepulse intensities tested, P<0.05, Duncan post-test): significant PPI disruption

Structure (SMILES): C=C(C)[C@@H]1CCC(C)=C[C@H]1c1c(O)cc(CCCCC)cc1O [CBD, cannabidiol]
- effective doses (hyperlocomotion induced by d-amphetamine) (Swiss mice [4]): 30 mg/kg and 60 mg/kg
- dose able to attenuate the hyper-locomotion induced by MK801 (Swiss mice [5]): 30 mg/kg
- dose producing an anxiolytic-like effect in the Vogel punished licking test [6]: 30 nmol
- effective dose (attenuation of PPI deficits caused by MK801) (Swiss mice [7]): 5 mg/kg
- effective dose (anxiolytic-like effect, EPM) [8]: 30 nmol
- dose producing an antidepressant-like effect in the forced swimming test (mice tested in the FST [9]): 30 mg/kg

— patent US9782360B2, “Fluorinated CBD compounds, compositions and uses thereof” (YISSUM RESEARCH DEVELOPMENT COMPANY OF THE HEBREW …, priority 2013, dated 2017)
